Measured values from PMC9260921, “Design and Synthesis of Carbothioamide/Carboxamide-Based Pyrazoline Analogs as Potential Anticancer Agents: Apoptosis, Molecular Docking, ADME Assay, and DNA Binding Studies” (ACS Omega, 2022).
Values after ≈ are worked out from the molar mass of the structure shown.

What was measured:
[1] = system: breast cancer cell line (MCF-7); parameters: method as in PMID 20627597; conditions: cited from earlier work
HeLa = system: HeLa; parameters: method as in PMID 27159418; conditions: cited from earlier work
[2] = system: human lung cancer cell (A549); test: MTT cytotoxicity assay, A549; format: cell-based; conditions: for Selectivity Index A549: HFL-1 vs A549; for IC50: Homo sapiens, MTT, 24 h treatment, A549
Protocol: (§1) The American type culture collection (ATCC, USA) provided human lung cancer cell line (A549), cervical cancer cell line (HeLa), and human primary normal lung cells (HFL-1) for this investigation. In a water-jacketed cell culture incubator, all of these cell types were cultured according to conventional culture conditions at 37 °C with 5% CO2. These cells were cultured in appropriate cell culture media. A549 cells were grown in DMEM media with 2 mM glutamine, HeLa cells were grown in Eagle’s minimum essential medium (EMEM) as recommended, whereas HFL-1 cells were also grown in F-12K. Fetal bovine serum 10% (FBS) was added to the entire medium. At a rate of 8000 cells were seeded in triplicate in a single 96-well plate for the MTT technique of cell death investigation. […] After the treatment period was finished, the media was removed, and each well was gently washed three times with PBS to clear any remaining residue just before the experiment. […] The plates were incubated at 37 °C for 4 h after the MTT was added. We used DMSO to remove crystals after the incubation period was completed. A hybrid multi-mode plate reader (BioTek, USA) with a microplate reader was used to measure absorbance at 570 nm. The percentage inhibition was calculated using eq 1: [drawing 1] 1 where ODtreated is the mean optical density (OD) of the treated cells and ODcontrol is the OD of the vehicle control cells (negative control).
(§2) With all of the experimental drugs, we conducted the MTT assay three times. Prism8 software (GraphPad) was used to determine the IC50 values of the various drugs, which were then expressed as a drug concentration (μM).

[3] = system: human cervical cancer cell (HeLa); test: MTT cytotoxicity assay, HeLa; format: cell-based; conditions: for Selectivity Index HeLa: HFL-1 vs HeLa; for IC50: Homo sapiens, MTT, 24 h treatment, HeLa
Protocol: as §1, §2

[4] = DPPH radical scavenging antioxidant assay; conditions: 1 h incubation in the dark
Protocol: The antioxidant activity of the 3a and 3h was determined using the DPPH ([…]) radical scavenging technique, as reported.[60],[73] In methanol, the DPPH radical has a purple color and has a strong absorption band with a maximum of 517 nm. Compound concentrations ranging from 1 to 4 μM were mixed with DPPH at a concentration of 10 μM. The mixtures were properly mixed and then incubated at room temperature for 1 h in the dark. The standard reference was ascorbic acid. As a control, DPPH in methanol was utilized. The % of DPPH radical scavenged was used to calculate the antioxidant activity of the compounds, which was calculated using eq 5: [drawing 5] 5 where Acontrol = DPPH absorbance; Asample = sample with DPPH absorbance.

Ct-DNA [5] = test: Cyclic voltammetry; format: binding; conditions: Tris-buffer, 100 mV s^–1, DNA 10–40 μM
Protocol: Using this experiment, a drug–DNA binding interaction has also been investigated. The solution’s pH was maintained before analysis, and the entire analytical equipment was built at 25 °C with a constant potential of 100 mV s^–1 scan rate and a voltage range of −1 to +1 V. The spectra of a test compound (60 μL) were recorded using a screen-printed electrode (SPE). These experiments were carried out in a 1:1 ferri/ferrocyanide solution ratio. Various concentrations of Ct-DNA (Tris-buffer) were used to further evaluate test compounds 3a and 3h. The working electrode is made of the test compound, whereas the counter and reference electrodes are made of gold-coated copper. Binding constants were obtained using eq 4: [drawing 4] 4 where I0 and I are the peak currents of compound and compound–DNA complexes, respectively.[56]

Ct-DNA [6] = test: Fluorescence emission titration; format: binding; conditions: DNA 10 μM, compound 10–80 μM
Protocol: Drug interactions with Ct-DNA have been studied using fluorescence assays. The experiments were achieved by varying drug concentration from 10 to 80 μM while keeping the concentration of DNA (10 μM) constant. Before making emission observation, the synthesized compound was incubated for 3 min with mixing DNA, after which emission titration was collected in Tris-buffer (pH 7.4) excitation at wavelength 260 nm, and the quenching results were analyzed using the Stern–Volmer equation (eq 3): [drawing 3] 3 Slit width has been kept constant at 10 nm during emission and excitation. The titration experiments were repeated three times (n = 3) to ensure consistent results.[50]−[52]

EB-DNA complex (Ct-DNA) = test: Ethidium bromide dye displacement assay; format: binding; conditions: quenching of EB-DNA fluorescence
From the text: Competitive fluorescence binding experiments utilizing ethidium bromide, a standard intercalation indicator, were used to evaluate the degree of molecular binding interaction mechanism of an active drug with Ct-DNA. […] The observable changes in the EB–DNA adduct’s emission spectrum as a function of quencher addition are particularly valuable for researching compound–DNA interactions. Fluorescence measurements were done in Tris-buffer at a 515 nm excitation wavelength in the range of 530–700 nm. Slit widths for both emission and excitation were set at about 10 nm.[54],[69]

A549 cells = test: Annexin V-FITC/PI flow cytometry apoptosis assay; format: cell-based, human; conditions: 4 μM, 24 h, control 11.41%
Protocol: We used flow cytometry analysis on A549 and HeLa cells for the quantitative apoptosis assay. As previously stated, cells were cultivated at 1.0 × 10^5 cells/ml and plated in 24-well culture plates (Corning) for 24 h. Cells were cultured for further 24 h after being treated with 4 μm of target drugs 3a and 3h. For analysis, the medium was discarded and cells were washed briefly in PBS, and then, the trypsinization protocol was carried out. Furthermore, cells were suspended in PBS and stained with annexin in V-FITC/PI according to the supplier technique (Sigma, USA, catalogue number: APOAF-20TST). After adding the reagents, the cells were allowed to incubate for 30 min at room temperature before being analyzed in PBS. The analysis was conducted on a BD FACS Accuri (BD Biosciences, USA), and the results were analyzed using FlowJo software (BD Biosciences, USA).[42]

[7] = system: human primary normal lung cells (HFL-1); test: MTT cytotoxicity assay, HFL-1; format: cell-based; conditions: HFL1, 24 h treatment
Protocol: as §1, §2

COc1ccc(C2CC(c3ccc(C)c(C)c3)=NN2C(N)=S)cc1 (stereo not drawn) [Compound 1]
IC50 [1]: 0.08 µM

COc1cc(C2=NN(C(N)=O)C(c3cn(C)c4ccc(Br)cc34)C2)cc(OC)c1OC (stereo not drawn) [Compound 2]
IC50 (HeLa): 0.21 µM

COc1cccc(C2=NN(C(N)=O)C(c3cn(C)c4ccc(Br)cc34)C2)c1 (stereo not drawn) [Compound 3]
IC50 (HeLa): 0.25 µM

CN(C)c1ccc(C2CC(c3ccc(Cl)cc3)=NN2C(N)=S)cc1 (stereo not drawn) [Compound 3a]
Selectivity Index A549 [2]: 8.4 | IC50 [2]: 13.5 ± 0.17 µM | Selectivity Index HeLa [3]: 6.5 | IC50 [3]: 17.52 ± 0.09 µM | IC50 DPPH radical scavenging [4]: 0.132 ± 0.012 µg/mL (≈ 0.368 µM) | binding constant K (cyclic voltammetry) (Ct-DNA [5]): 1.25 × 10^4 | Stern–Volmer constant KSV (emission titration) (Ct-DNA [6]): 5.80 × 10^3 M^–1 | Stern–Volmer constant KSV (EtBr displacement) (EB-DNA complex (Ct-DNA)): 1.84 × 10^4 M^–1 | cell death (sum of Q1+Q2+Q3) (A549 cells): 25.86% | IC50 [7]: 114.5 ± 0.01 µM

CN(C)c1ccc(C2CC(c3cccc(Br)c3)=NN2C(N)=S)cc1 (stereo not drawn) [Compound 3b]
Selectivity Index A549 [2]: 1.0 | IC50 [2]: 222.3 ± 0.09 µM | Selectivity Index HeLa [3]: 1.5 | IC50 [3]: 150.1 ± 0.24 µM | IC50 [7]: 227.98 ± 0.04 µM

CN(C)c1ccc(C2CC(c3cccc([N+](=O)[O-])c3)=NN2C(N)=S)cc1 (stereo not drawn) [Compound 3c]
Selectivity Index A549 [2]: 1.1 | IC50 [2]: 163.9 ± 0.07 µM | Selectivity Index HeLa [3]: 1.4 | IC50 [3]: 123.6 ± 0.2 µM | IC50 [7]: 185.3 ± 0.21 µM

CN(C)c1ccc(C2CC(c3ccccc3Cl)=NN2C(N)=S)cc1 (stereo not drawn) [Compound 3d]
Selectivity Index A549 [2]: 1.8 | IC50 [2]: 118.7 ± 0.08 µM | Selectivity Index HeLa [3]: 14.46 | IC50 [3]: 15 ± 0.46 µM | IC50 [7]: 217.03 ± 0.02 µM

Cc1ccc(C2=NN(C(N)=S)C(c3ccc(N(C)C)cc3)C2)cc1 (stereo not drawn) [Compound 3e]
IC50 [2]: 37.07 ± 0.14 µM | Selectivity Index HeLa [3]: 17.4 | IC50 [3]: 14.1 ± 0.4 µM | IC50 [7]: 244.64 ± 0.05 µM

CN(C)c1ccc(C2CC(c3ccc(Br)cc3)=NN2C(N)=S)cc1 (stereo not drawn) [Compound 3f]
Selectivity Index A549 [2]: 2.0 | IC50 [2]: 94.18 ± 0.11 µM | Selectivity Index HeLa [3]: 1.1 | IC50 [3]: 168.8 ± 0.36 µM | IC50 [7]: 194.33 ± 0.01 µM

CN(C)c1ccc(C2CC(c3ccc(Cl)cc3)=NN2C(N)=O)cc1 (stereo not drawn) [Compound 3g]
Selectivity Index A549 [2]: 0.4 | IC50 [2]: 59.74 ± 0.18 µM | Selectivity Index HeLa [3]: 0.03 | IC50 [3]: 890.3 ± 0.22 µM | IC50 [7]: 26.94 ± 0.08 µM

CN(C)c1ccc(C2CC(c3cccc(Br)c3)=NN2C(N)=O)cc1 (stereo not drawn) [Compound 3h]
Selectivity Index A549 [2]: 7.6 | IC50 [2]: 22.5 ± 0.25 µM | Selectivity Index HeLa [3]: 7.1 | IC50 [3]: 24.1 ± 0.86 µM | IC50 DPPH radical scavenging [4]: 0.215 ± 0.025 µg/mL (≈ 0.555 µM) | binding constant K (cyclic voltammetry) (Ct-DNA [5]): 7.1 × 10^3 | Stern–Volmer constant KSV (emission titration) (Ct-DNA [6]): 4.28 × 10^3 M^–1 | Stern–Volmer constant KSV (EtBr displacement) (EB-DNA complex (Ct-DNA)): 1.69 × 10^4 M^–1 | cell death (sum of Q1+Q2+Q3) (A549 cells): 20.60% | IC50 [7]: 173 ± 10 µM

CN(C)c1ccc(C2CC(c3ccc([N+](=O)[O-])cc3)=NN2C(N)=O)cc1 (stereo not drawn) [Compound 3i]
Selectivity Index A549 [2]: 0.9 | IC50 [2]: 174.84 ± 0.05 µM | Selectivity Index HeLa [3]: 2.0 | IC50 [3]: 80.7 ± 0.28 µM | IC50 [7]: 165.84 ± 0.03 µM

CN(C)c1ccc(C2CC(c3cccc4ccccc34)=NN2C(N)=S)cc1 (stereo not drawn) [Compound 3j]
Selectivity Index A549 [2]: 0.5 | IC50 [2]: 290.09 ± 0.14 µM | Selectivity Index HeLa [3]: 0.8 | IC50 [3]: 194.2 ± 0.44 µM | IC50 [7]: 166.75 ± 0.03 µM

CN(C)c1ccc(C2CC(c3cccc4ccccc34)=NN2C(N)=O)cc1 (stereo not drawn) [Compound 3k]
Selectivity Index A549 [2]: 0.5 | IC50 [2]: 52.76 ± 0.28 µM | Selectivity Index HeLa [3]: 0.2 | IC50 [3]: 96.46 ± 0.25 µM | IC50 [7]: 27.52 ± 0.06 µM

CCN(CC)c1ccc(C2CC(c3ccc(Br)cc3)=NN2C(N)=S)cc1 (stereo not drawn) [Compound 3l]
Selectivity Index A549 [2]: 4.2 | IC50 [2]: 43.93 ± 0.13 µM | Selectivity Index HeLa [3]: 10.5 | IC50 [3]: 17.7 ± 0.42 µM | IC50 [7]: 185.45 ± 0.14 µM
